# Test results published in patent US20220162191A1, “SMALL MOLECULE MODULATORS OF IL-17” (LEO PHARMA A/S, priority 2019, published 2022).
# Target: T1, human IL-17AA (Homo sapiens, UniProt Q16552)
# T1 construct: host or cells: HEK (human embryonic kidney) cells
# T1 sequence (Q16552 24-155) 1: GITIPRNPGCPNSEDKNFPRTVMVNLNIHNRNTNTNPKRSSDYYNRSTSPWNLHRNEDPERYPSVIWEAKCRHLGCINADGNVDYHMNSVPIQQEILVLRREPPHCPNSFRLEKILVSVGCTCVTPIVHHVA
# T1 sequence (Q16552 24-155) 2: T1 sequence (Q16552 24-155) 1
# Assay: IL-8 release assay in human epithelial keratinocytes adult (HEKa)
# Format: cell-based
# Details: 3 ng/ml human IL-17AA + 10 ng/ml human TNFalpha, 68-72 h, IL-8 by HTRF, read-out: Rel EC50 L-8 release assay
# Outline: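 Adult human keratinocytes in Epilife with HKGS minus hydrocortisone, treated with compound then stimulated with final 3 ng/ml HEK-derived human IL-17AA plus 10 ng/ml TNF-alpha for 68–72 h at 37 °C; TNF-alpha alone defines 100% inhibition. Secreted IL-8 by HTRF; relative IC50 and Emax from four-parameter fits.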
row,SMILES,EC50 [nM]
1,"CC(C)n1cc(-c2ccc(Cl)c(C[C@H](NC(=O)c3ccnn3C)C(=O)Nc3ccc(-c4cn[nH]c4)c(F)c3)c2)ccc1=O [Example 138, N-[(1S)-1-[[2-chloro-5-(1-isopropyl-6-oxo-3-pyridyl)phenyl]methyl]-2-[3-fluoro-4-(1H-pyrazol-4-yl)anilino]-2-oxo-ethyl]-2-methyl-pyrazole-3-carboxamide]",100 to 1000
2,"CN(C)Cc1cc(-c2ccc(Cl)c(CC(NC(=O)c3ccnn3C)C(=O)Nc3ccc(-c4nncn4C)cc3)c2)ccc1O (stereo not drawn) [Example 139, N-[1-[[2-chloro-5-[3-(dimethylaminomethyl)-4-hydroxy-phenyl]phenyl]methyl]-2-[4-(4-methyl-1,2,4-triazol-3-yl)anilino]-2-oxo-ethyl]-2-methyl-pyrazole-3-carboxamide]",> 1000
3,"Cn1cncc1-c1ccc(NC(=O)[C@H](Cc2cc(-c3ccnc(C(C)(O)C4CC4)c3)ccc2Cl)NC(=O)c2ccnn2C)cc1 (stereo partly drawn) [Example 141, N-[(1S)-1-[[2-chloro-5-[2-(1-cyclopropyl-1-hydroxy-ethyl)-4-pyridyl]phenyl]methyl]-2-[4-(3-methylimidazol-4-yl)anilino]-2-oxo-ethyl]-2-methyl-pyrazole-3-carboxamide]",< 100
4,"Cn1cncc1-c1ccc(NC(=O)[C@H](Cc2cc(-c3ccnc(C(C)(O)C4CC4)c3)ccc2Cl)NC(=O)C2(F)CC2)cc1 (stereo partly drawn) [Example 142, N-[(1S)-1-[[2-chloro-5-[2-(1-cyclopropyl-1-hydroxy-ethyl)-4-pyridyl]phenyl]methyl]-2-[4-(3-methylimidazol-4-yl)anilino]-2-oxo-ethyl]-1-fluoro-cyclopropanecarboxamide]",< 100
5,"Cc1ncn(C)c1-c1ccc(NC(=O)[C@H](Cc2cc(-c3ccc(=O)n(C(C)C)c3)ccc2Cl)NC(=O)c2ccnn2C)cc1 [Example 143, N-[(1S)-1-[[2-chloro-5-(1-isopropyl-6-oxo-3-pyridyl)phenyl]methyl]-2-[4-(3,5-dimethylimidazol-4-yl)anilino]-2-oxo-ethyl]-2-methyl-pyrazole-3-carboxamide]",100 to 1000
6,"Cn1cnnc1-c1ccc(NC(=O)C(Cc2cc(-c3cccc(C4(O)CCC4)c3)ccc2Cl)NC(=O)c2ccnn2C)cc1 (stereo not drawn) [Example 144, N-[1-[[2-chloro-5-[3-(1-hydroxycyclobutyl)phenyl]phenyl]methyl]-2-[4-(4-methyl-1,2,4-triazol-3-yl)anilino]-2-oxo-ethyl]-2-methyl-pyrazole-3-carboxamide]",100 to 1000
7,"Cn1cnnc1-c1ccc(NC(=O)C(Cc2cc(-c3cccc(OC4CCC4)c3)ccc2Cl)NC(=O)c2ccnn2C)cc1 (stereo not drawn) [Example 145, N-[1-[[2-chloro-5-[3-(cyclobutoxy)phenyl]phenyl]methyl]-2-[4-(4-methyl-1,2,4-triazol-3-yl)anilino]-2-oxo-ethyl]-2-methyl-pyrazole-3-carboxamide]",100 to 1000
8,"Cn1cncc1-c1ccc(NC(=O)C(Cc2cc(-c3ccnc(N4CCCC4)c3)ccc2Cl)NC(=O)c2ccnn2C)cc1 (stereo not drawn) [Example 146, N-[1-[[2-chloro-5-(2-pyrrolidin-1-yl-4-pyridyl)phenyl]methyl]-2-[4-(3-methylimidazol-4-yl)anilino]-2-oxo-ethyl]-2-methyl-pyrazole-3-carboxamide]",100 to 1000
9,"CC(C)n1cc(-c2ccc(Cl)c(C[C@H](NC(=O)C3(F)CCC3)C(=O)Nc3ccc(-c4cncn4C)cc3)c2)ccc1=O [Example 147, N-[(1S)-1-[[2-chloro-5-(1-isopropyl-6-oxo-3-pyridyl)phenyl]methyl]-2-[4-(3-methylimidazol-4-yl)anilino]-2-oxo-ethyl]-1-fluoro-cyclobutanecarboxamide]",100 to 1000
10,"CC(C)n1cc(-c2ccc(Cl)c(C[C@H](NC(=O)C3(F)CCC3)C(=O)Nc3ccc(-c4nncn4C)cc3)c2)ccc1=O [Example 148, N-[(1S)-1-[[2-chloro-5-(1-isopropyl-6-oxo-3-pyridyl)phenyl]methyl]-2-[4-(4-methyl-1,2,4-triazol-3-yl)anilino]-2-oxo-ethyl]-1-fluoro-cyclobutanecarboxamide]",> 1000
11,"CN(CC1CC1)c1cc(-c2ccc(Cl)c(CC(NC(=O)c3ccnn3C)C(=O)Nc3ccc(-c4cncn4C)cc3)c2)ccn1 (stereo not drawn) [Example 153, N-[1-[[2-chloro-5-[2-[cyclopropylmethyl(methyl)amino]-4-pyridyl]phenyl]methyl]-2-[4-(3-methylimidazol-4-yl)anilino]-2-oxo-ethyl]-2-methyl-pyrazole-3-carboxamide]",< 100
12,"CC(C)n1cc(-c2ccc(Cl)c(C[C@H](NC(=O)C3CC3(C)C)C(=O)Nc3ccc(-c4nncn4C)cc3)c2)ccc1=O (stereo partly drawn) [Example 154, N-[(1S)-1-[[2-chloro-5-(1-isopropyl-6-oxo-3-pyridyl)phenyl]methyl]-2-[4-(4-methyl-1,2,4-triazol-3-yl)anilino]-2-oxo-ethyl]-2,2-dimethyl-cyclopropanecarboxamide]",> 1000
13,"COCOc1ccc(-c2ccc(Cl)c(CC(NC(=O)c3ccnn3C)C(=O)Nc3ccc(-c4nncn4C)cc3)c2)cc1C(=O)N(C)C (stereo not drawn) [Example 155, N-[1-[[2-chloro-5-[3-(dimethylcarbamoyl)-4-(methoxymethoxy)phenyl]phenyl]methyl]-2-[4-(4-methyl-1,2,4-triazol-3-yl)anilino]-2-oxo-ethyl]-2-methyl-pyrazole-3-carboxamide]",> 1000
14,"COCOc1ccc(-c2ccc(Cl)c(CC(NC(=O)c3ccnn3C)C(=O)Nc3ccc(-c4nncn4C)cc3)c2)cc1C(=O)N1CCC1 (stereo not drawn) [Example 156, N-[1-[[5-[3-(azetidine-1-carbonyl)-4-(methoxymethoxy)phenyl]-2-chloro-phenyl]methyl]-2-[4-(4-methyl-1,2,4-triazol-3-yl)anilino]-2-oxo-ethyl]-2-methyl-pyrazole-3-carboxamide]",> 1000
15,"Cn1cnnc1-c1ccc(NC(=O)C(Cc2cc(-c3ccc(O)c(CN4CCNCC4)c3)ccc2Cl)NC(=O)c2ccnn2C)cc1 (stereo not drawn) [Example 157, N-[1-[[2-chloro-5-[4-hydroxy-3-(piperazin-1-ylmethyl)phenyl]phenyl]methyl]-2-[4-(4-methyl-1,2,4-triazol-3-yl)anilino]-2-oxo-ethyl]-2-methyl-pyrazole-3-carboxamide]",100 to 1000
16,"Cn1cncc1-c1ccc(NC(=O)C(Cc2cc(-c3ccnc(OC4CCC4)c3)ccc2Cl)NC(=O)c2ccnn2C)cc1 (stereo not drawn) [Example 158, N-[1-[[2-chloro-5-[2-(cyclobutoxy)-4-pyridyl]phenyl]methyl]-2-[4-(3-methylimidazol-4-yl)anilino]-2-oxo-ethyl]-2-methyl-pyrazole-3-carboxamide]",100 to 1000
17,"Cn1cncc1-c1ccc(NC(=O)C(Cc2cc(-c3ccnc(N4CCCCC4)c3)ccc2Cl)NC(=O)c2ccnn2C)cc1 (stereo not drawn) [Example 160, N-[1-[[2-chloro-5-[2-(1-piperidyl)-4-pyridyl]phenyl]methyl]-2-[4-(3-methylimidazol-4-yl)anilino]-2-oxo-ethyl]-2-methyl-pyrazole-3-carboxamide]",100 to 1000

# The remaining lines, values ahead:
row,EC50 [nM],SMILES
1,100 to 1000,"Cn1cncc1-c1ccc(NC(=O)[C@H](Cc2cc(-c3ccnc(C(O)C4CC4)c3)ccc2Cl)NC(=O)c2ccnn2C)cc1 (stereo partly drawn) [Example 140, N-[(1S)-1-[[2-chloro-5-[2-[cyclopropyl(hydroxy)methyl]-4-pyridyl]phenyl]methyl]-2-[4-(3-methylimidazol-4-yl)anilino]-2-oxo-ethyl]-2-methyl-pyrazole-3-carboxamide]"
2,100 to 1000,"Cn1cncc1-c1ccc(NC(=O)C(Cc2cc(-c3ccnc(N4CCC4)c3)ccc2Cl)NC(=O)c2ccnn2C)cc1 (stereo not drawn) [Example 149, N-[1-[[5-[2-(azetidin-1-yl)-4-pyridyl]-2-chloro-phenyl]methyl]-2-[4-(3-methylimidazol-4-yl)anilino]-2-oxo-ethyl]-2-methyl-pyrazole-3-carboxamide]"
3,< 100,"CN(c1cc(-c2ccc(Cl)c(CC(NC(=O)c3ccnn3C)C(=O)Nc3ccc(-c4cncn4C)cc3)c2)ccn1)C1CC1 (stereo not drawn) [Example 150, N-[1-[[2-chloro-5-[2-[cyclopropyl(methyl)amino]-4-pyridyl]phenyl]methyl]-2-[4-(3-methylimidazol-4-yl)anilino]-2-oxo-ethyl]-2-methyl-pyrazole-3-carboxamide]"
4,100 to 1000,"Cn1cncc1-c1ccc(NC(=O)C(Cc2cc(-c3ccnc(OCC(F)(F)F)c3)ccc2Cl)NC(=O)c2ccnn2C)cc1 (stereo not drawn) [Example 152, N-[1-[[2-chloro-5-[2-(2,2,2-trifluoroethoxy)-4-pyridyl]phenyl]methyl]-2-[4-(3-methylimidazol-4-yl)anilino]-2-oxo-ethyl]-2-methyl-pyrazole-3-carboxamide]"
5,< 100,"CC(C)N(C)c1cc(-c2ccc(Cl)c(CC(NC(=O)c3ccnn3C)C(=O)Nc3ccc(-c4cncn4C)cc3)c2)ccn1 (stereo not drawn) [Example 159, N-[1-[[2-chloro-5-[2-[isopropyl(methyl)amino]-4-pyridyl]phenyl]methyl]-2-[4-(3-methylimidazol-4-yl)anilino]-2-oxo-ethyl]-2-methyl-pyrazole-3-carboxamide]"
6,100 to 1000,"Cn1cncc1-c1ccc(NC(=O)C(Cc2cc(-c3ccnc(OC(F)F)c3)ccc2Cl)NC(=O)c2ccnn2C)cc1 (stereo not drawn) [Example 161, N-[1-[[2-chloro-5-[2-(difluoromethoxy)-4-pyridyl]phenyl]methyl]-2-[4-(3-methylimidazol-4-yl)anilino]-2-oxo-ethyl]-2-methyl-pyrazole-3-carboxamide]"
7,100 to 1000,"CN(C)c1cc(-c2ccc(Cl)c(CC(NC(=O)c3ccnn3C)C(=O)Nc3ccc(-c4cncn4C)cc3)c2)ccn1 (stereo not drawn) [Example 162, N-[1-[[2-chloro-5-[2-(dimethylamino)-4-pyridyl]phenyl]methyl]-2-[4-(3-methylimidazol-4-yl)anilino]-2-oxo-ethyl]-2-methyl-pyrazole-3-carboxamide]"
